From PMC8695447, “Novel Small Molecules Capable of Blocking mtRAS-Signaling Pathway” (Frontiers in Oncology, 2021)

Key:
Assay type in all cases: cell-based
[1] = tested on: cancer cells harboring mtRAS; test: Soft agar assay (3D clonogenic assay); details: 0.1 μM, 14 days
Description: Soft agar assay was conducted for 3D clonogenic assay. On the 0.7% bottom agar, cells were seeded in 6-well plate (5 × 10^3 cells/well) with 0.35% low melting agar (Lonza, #50101) containing the complete media. The cells were treated with indicated compounds for 14 days at 37°C. Colonies were stained by iodonitrotetrazolium chloride (Sigma-Aldrich, I8377) for overnight. The total area of each well was observed without magnification, and the number of colonies of each well were determined using ImageJ software (n = 3).
Figure 8 (A–F) Soft agar assay results for evaluating the effect of SIJ1795 and SIJ1772 on anchorage independent growth abilities on cancer cells harboring mtRAS. Cells were incubated with indicated compounds (0.01 µM or 0.1 µM) for 14 days. After staining with crystal violet, colonies were photographed without magnification. (G–L) Number of colonies (% of control) upon treatment with indicated compounds at 0.1 µM concentration were determined by ImageJ (n = 3, respectively). Statistical significance was calculated by a one-way ANOVA analysis (*p < 0.05, **p < 0.01, ***p < 0.001, ****p < 0.0001).

DU-145 (KRAS-G12V) = test: Anti-proliferation assay on DU-145; details: Homo sapiens, DU-145; 72 h treatment; average with SD (n = 3, duplicate)
Description: (§1) Ba/F3-parental, OCI-AML3, U397 cells were purchased from DSMZ. MDA-MB-231, HCT-116, AsPC-1, H358, HT-29, SW480, and DU-145 cells were obtained from KCLB. MDA-MB-468 cells were obtained from ATCC. All cells were maintained in RPMI with 10% FBS and antibiotics. Cells were grown in a humidified 5% CO2 incubator at 37°C. Ba/F3-parental cells were grown in the presence of 10 ng/ml IL-3. NRAS-G12D or NRAS-G12V transformed Ba/F3 cell lines (Ba/F3-NRAS-G12D, and Ba/F3-NRAS-G12V, respectively) were cultured without IL-3, which were established by the procedure described as previously ([30]).
(§2) Approximately 3.0 × 10^3 cells/well were seeded in a 96-well cell culture plate. After stabilization, 1/3 serially diluted compound in DMSO was treated to the cell. […] All GI50 values were obtained in duplicate with three independent assays and averages with standard deviation are presented.

[2] = tested on: cancer cells with mtRAS including H358, AsPC-1, DU-145, SW480, and MDA-MB-231; test: Invasion assay (Boyden chamber assay); details: 0.01 µM, 48 h
Description: For invasion assay, Boyden chamber assay carried out. Transwell insert was precoated with matrigel (Corning, #354248). Cells were seeded in the transwell chamber insert (8 μm pore size) at a density of 5.0 × 10^5 cells/well after serum starvation for overnight. The cells were incubated with 0.01 μM concentration of each compounds of for 48 h at 37°C. The non-invaded cells were eliminated. Crystal violet solution was used to staining the invaded cells. Cells were observed and photographed with 100× magnification. Stained cells were automatically counted and quantified (n = 3).
Figure 6 The effects of SIJ1795 and SIJ1772 on migration and invasion activities of cancer cells harboring mtRAS. (A) Scratch assay result for cell migration ability determination. Each cell monolayers were scratched and incubated with test compounds at 0.01 μM. After 8 h (MDA-MB-231) or 24 h (DU-145, SW480, HCT-116) or 48 h (AsPC-1) or 72 h (HT-29), cells were stained with crystal violet. Migrated areas were photographed with 40× magnification. Migrated area was determined by ImageJ (n = 3). (B) Boyden chamber assay result for cell invasion ability determination. […] Stained cells were counted by ImageJ (n = 3). Statistical significance was determined using a one-way ANOVA analysis (*p < 0.05, **p < 0.01, ***p < 0.001, ****p < 0.0001).

MDA-MB-231 (KRAS-G13D) = test: Anti-proliferation assay on MDA-MB-231; details: Homo sapiens, MDA-MB-231; 72 h treatment; average with SD (n = 3, duplicate)
Description: as §1, §2

[3] = tested on: Ba/F3 cells transformed with mtRAS (NRAS-G12D and NRAS-G12V) and cancer cells harboring mtRAS; test: Flow cytometry cell cycle analysis (PI); details: 1 μM, 24 h
Description: For cell cycle analysis, cells (1 × 10^6 cells per sample) were incubated with each compounds for 24 h. Cells were subjected to brief ice-cold PBS washing and fixed with 70% EtOH for 1 h at −20°C. Cells were stained with PI/RNase staining solution (Cell signaling, #4087) and incubated 30 min at room temperature in a dark condition. Stained cells were subjected to flow cytometry analysis. Debris and unstained cells and were excluded by gating.
Figure 5 The effects of SIJ1795 and SIJ1772 on cell cycle arrest against in (A, B) Ba/F3 cells transformed with mtRAS (NRAS-G12D and NRAS-G12V) and (C, D) cancer cells harboring mtRAS. Cells were treated with 1 µM of SIJ1795, SIJ1772, and GNF-7 for 24 h. Cells were stained by PI and analyzed the percentage of cell cycle phase by flow cytometry.

GI50 (DU-145 (KRAS-G12V)) [nM] | GI50 (MDA-MB-231 (KRAS-G13D)) [nM] | Compound | anchorage independent cell growth [1] | reduction in invasion capabilities [2] | cell cycle arrest [3]
29 ± 3 | 58 ± 1 | Cc1ccc(NC(=O)c2cccc(C(F)(F)F)c2)cc1N1Cc2cnc(Nc3cnn(C4CCN(S(C)(=O)=O)CC4)c3)nc2N(C)C1=O [SIJ1772, N-(4-Methyl-3-(1-methyl-7-((1-(1-(methylsulfonyl)piperidin-4-yl)-1H-pyrazol-4-yl)amino)-2-oxo-1,4-dihydropyrimido[4,5-d]pyrimidin-3(2H)-yl)phenyl)-3-(trifluoromethyl)benzamide] | suppressed | over 50% | G0/G1 arrest was induced
77 ± 43 | 53 ± 8 | CCN1CCN(c2cccc(Nc3ncc4c(n3)N(C)C(=O)N(c3cc(NC(=O)c5cccc(C(F)(F)F)c5)ccc3C)C4)c2)CC1 [SIJ1795, N-(3-(7-((3-(4-Ethylpiperazin-1-yl)phenyl)amino)-1-methyl-2-oxo-1,4-dihydropyrimido[4,5-d]pyrimidin-3(2H)-yl)-4-methylphenyl)-3-(trifluoromethyl)benzamide] | suppressed | over 50% | G0/G1 arrest was induced
